Key:
Assay type in all cases: cell-based
Bacillus subtilis = assay: Microbial reduction (MLC) in clear apple juice seeded with Bacillus subtilis, preservative with or without PEF; settings: 10^3 CFU/ml
Description: (§1) In the examples hereinafter, the Elcrack® apparatus of the Deutsche Institute für Lebensmitteltechnik e. V. [German Institute for food technology] was used for the PEF treatment.
(§2) The treatment proceeded at differing field strengths and energy densities, wherein the pulse width was 20 μs and the pulse frequency 400 Hz.
(§3) In the examples hereinafter, in each case clear apple juice was admixed with stirring by means of a propeller agitator with a microbial or spore suspension, then after approximately 3 minutes, optionally further antimicrobially active substances, and thereafter after approximately 2 minutes, DMDC. The microbial or spore suspension was added in such a manner that a defined amount of cells, generally 10^3 to 10^5 CFU/ml were present in the apple juice.
(§4) The apple juice was then treated by PEF (using the above-described Elcrack® apparatus). As further microbially active substances, sodium benzoate or potassium sorbate were used.
(§5) As a measure for microbial reduction, the median logarithmic cell count reduction (MLC) was determined. In this case the logarithm of the surviving cell count is subtracted from the logarithm of the initial cell count. The higher the MLC value, the higher the microbial reduction and the better the activity is.
(§6) A: Bacillilus subtilis DSM 347 (ATCC 6633) B: Penicillium roqueforti DSM 1079 (ATCC 34908) C: Lactobacillus frigidus DSM 6235 D: Saccharomyces […] DSM 70449 (ATCC 18824)

Penicillium roqueforti = assay: Microbial reduction (MLC) in clear apple juice seeded with Penicillium roqueforti, preservative with or without PEF; settings: 10^5 CFU/ml
Description: as §1, §2, §3, §4, §5, §6

Lactobacillus frigidus = assay: Microbial reduction (MLC) in clear apple juice seeded with Lactobacillus frigidus, preservative with or without PEF; settings: 10^5 CFU/ml, after 1 week
Description: as §1, §2, §3, §4, §5, §6

Saccharomyces cerivisiae = assay: Microbial reduction (MLC) in clear apple juice seeded with Saccharomyces cerivisiae, preservative with PEF; settings: 10^5 CFU/ml, PEF 5 kV/cm, 3-6 J/ml, after 24 h
Description: as §1, §2, §3, §4, §5, §6

[1] = PEF 35 kV/cm, 110-116 J/ml, after 24 h
[2] = PEF 30 kV/cm, 94-104 J/ml, after 24 h

COC(=O)OC(=O)OC [Example A1, dimethyl dicarbonate]
MLC (median logarithmic cell count reduction) (Bacillus subtilis; [1]): 2.2/24 h

COC(=O)OC(=O)OC [Example A4, dimethyl dicarbonate]
MLC (median logarithmic cell count reduction) (Bacillus subtilis; PEF 15 kV/cm, 23 J/ml, after 24 h): 1.4/24 h

COC(=O)OC(=O)OC [Example A5, dimethyl dicarbonate]
MLC (median logarithmic cell count reduction) (Bacillus subtilis; PEF 35 kV/cm, 111 J/ml, after 1 week): 3.0/1 week

COC(=O)OC(=O)OC [Example B5, dimethyl dicarbonate]
MLC (median logarithmic cell count reduction) (Penicillium roqueforti; PEF 30 kV/cm, 94-104 J/ml, after 4 weeks): at least 7/4

COC(=O)OC(=O)OC [Example C1, dimethyl dicarbonate]
MLC (median logarithmic cell count reduction) (Lactobacillus frigidus; PEF 30 kV/cm, 88-93 J/ml): 3.6/1 week

COC(=O)OC(=O)OC [Example D1, dimethyl dicarbonate]
MLC (median logarithmic cell count reduction) (Saccharomyces cerivisiae): min 7/24 h

O=C([O-])c1ccccc1.[Na+] [VA1, sodium benzoate]
MLC (median logarithmic cell count reduction) (Bacillus subtilis; [1]): 2.0/24 h

C/C=C/C=C/C(=O)[O-].[K+] [VA2, potassium sorbate]
MLC (median logarithmic cell count reduction) (Bacillus subtilis; [1]): 0.5/24 h

COC(=O)OC(=O)OC [VB1, dimethyl dicarbonate]
MLC (median logarithmic cell count reduction) (Penicillium roqueforti; no PEF, 21° C., after 24 h): 6.4/24 h

O=C([O-])c1ccccc1.[Na+] [VB3, sodium benzoate]
MLC (median logarithmic cell count reduction) (Penicillium roqueforti; [2]): none; heavy

C/C=C/C=C/C(=O)[O-].[K+] [VB4, potassium sorbate]
MLC (median logarithmic cell count reduction) (Penicillium roqueforti; [2]): none; heavy

COC(=O)OC(=O)OC [VC1, dimethyl dicarbonate]
MLC (median logarithmic cell count reduction) (Lactobacillus frigidus; no PEF, 21° C.): 2.3/1 week

O=C([O-])c1ccccc1.[Na+] [VC2, sodium benzoate]
MLC (median logarithmic cell count reduction) (Lactobacillus frigidus; PEF 30 kV/cm, 88-93 J/ml): 2.8/1 week

C/C=C/C=C/C(=O)[O-].[K+] [VC3, potassium sorbate]
MLC (median logarithmic cell count reduction) (Lactobacillus frigidus; PEF 30 kV/cm, 88-93 J/ml): 3.0/1 week

O=C([O-])c1ccccc1.[Na+] [VD2, sodium benzoate]
MLC (median logarithmic cell count reduction) (Saccharomyces cerivisiae): none; heavy

C/C=C/C=C/C(=O)[O-].[K+] [VD3, potassium sorbate]
MLC (median logarithmic cell count reduction) (Saccharomyces cerivisiae): none; heavy

Source: patent publication US20130129732A1, “METHOD FOR […]” (LANXESS Deutschland GmbH, priority 2009, published 2013)
